# According to patent publication US20070059378A1, “Medical composition for balancing bodily processes” (Metagenics, Inc., priority 2001, published 2007):
# System: subjects with PMS symptoms
# Experiment: Clinical study on PMS symptoms: Shortened Premenstrual Assessment Form (SPAF)
# Assay type: in vivo, women
# Details: medical food/I3C group vs medical food/placebo group
# Method: The clinical trial was performed at the Functional Medicine Research Center, Gig Harbor, Wash. […] Exclusion criteria for the study included: evidence of untreated endocrine, neurological, or infectious disorder; pregnancy or lactation; history of diabetes, mental illness or attempted suicide, or liver, kidney or heart disease; use of oral corticosteroids within four weeks prior to the screening; use of anti-arrhythmic or other cardiac medications.
# The study was a […], 2-armed trial with stratification based on the use of birth control medication. Primary endpoints were monitored at the Screening Visit, Visit 1, Visit 2, and Visit 3. […]
# Two research-validated, PMS-specific questionnaires were chosen for monitoring PMS symptoms: the Shortened Premenstrual Assessment Form (SPAF) and the Menstrual Distress Questionnaire (MDQ). […] The MDQ data is transformed to provide a normalized score for which a population mean of 50 and a standard deviation of 10 have been determined as reference values. […]
# Baseline data (the level of symptoms experienced in the preceding 2 menstrual cycles) were obtained from averaging the Screening Visit and Visit 1 values, and served as a control for non-intervention variability. Laboratory and questionnaire data were analyzed by a one-way analysis of variance (ANOVA) using JMP Statistical Package (SAS Institute, Cary, N.C.). […]
smiles,measurement,setting,value
"OCc1c[nH]c2ccccc12 [Example I3C, indole-3-carbinol]",additional effect of I3C on PMS symptoms (questionnaire data) over medical food/placebo,,no difference
same,additional effect of I3C on PMS symptoms (questionnaire data) over medical food/placebo,listed as 13C,no additional effect
